# Test results published in patent US10004732B2 (Novartis AG, priority 2014, dated 2018).
# pIC50: −log10 of the molar value. Like-named read-outs stand apart in the source and are kept apart here.
# Assays:
# [1] = target: T1, PI 3-kinase beta (Homo sapiens, UniProt P42338); experiment: Kinase Glo Luminescent Kinase Assay (Kglo), assay B; assay type: biochemical; conditions: read-out: Assay B PI3Kβ IC50
# Procedure: (§1) Kinase Glo Luminescent Kinase Assay (Kglo) for Pb 3-Kinase Alpha (A), Pb 3-Kinase Beta (B), Vps34 (C), Pb 4-Kinase Beta (D)
# (§2) The Kinase Glo Luminescent Kinase Assay (Promega, Madison/Wis., USA) is a homogeneous HTS method of measuring kinase activity by quantifying the amount of ATP remaining in solution following a kinase reaction.
# (§3) L-α-phosphatidylinositol (PI), provided as 10 mg/ml solution in methanol, was transferred into a glass tube and dried under a nitrogen beam. It was then resuspended in 3% OctylGlucoside (1-0-n-octyl-beta-D-glucopyranoside) by vortexing and stored at 4° C. 5 μL of a mix of PI/OctylGlucoside with the PI 3-kinase alpha and PI 3-kinase beta subtypes, or Vps34 or PI 4-kinase beta were added. Kinase reactions were started by the addition of 5 μl of an ATP-mix containing in a final volume 10 μL 10 mM TRIS-HCl pH 7.5, 3 mM MgCl2, 50 mM NaCl, 0.05% CHAPS, 1 mM DTT and 1 μM ATP at room temperature.
# (§4) All fits were performed with the program XLfit4 (ID Business Solutions, Guildford, UK).
# [2] = target: T2, PI 3-kinase alpha (Homo sapiens, UniProt P42336); experiment: Cellular assay H1, p-Akt (S473) in Rat-1 cells, Surefire format; assay type: cell-based; conditions: non-asterisked data: version H1 (Surefire format), Rat-1 cells; read-out: Assay H PI3Kα IC50
# Target sequence in this assay (P42336 whole entry): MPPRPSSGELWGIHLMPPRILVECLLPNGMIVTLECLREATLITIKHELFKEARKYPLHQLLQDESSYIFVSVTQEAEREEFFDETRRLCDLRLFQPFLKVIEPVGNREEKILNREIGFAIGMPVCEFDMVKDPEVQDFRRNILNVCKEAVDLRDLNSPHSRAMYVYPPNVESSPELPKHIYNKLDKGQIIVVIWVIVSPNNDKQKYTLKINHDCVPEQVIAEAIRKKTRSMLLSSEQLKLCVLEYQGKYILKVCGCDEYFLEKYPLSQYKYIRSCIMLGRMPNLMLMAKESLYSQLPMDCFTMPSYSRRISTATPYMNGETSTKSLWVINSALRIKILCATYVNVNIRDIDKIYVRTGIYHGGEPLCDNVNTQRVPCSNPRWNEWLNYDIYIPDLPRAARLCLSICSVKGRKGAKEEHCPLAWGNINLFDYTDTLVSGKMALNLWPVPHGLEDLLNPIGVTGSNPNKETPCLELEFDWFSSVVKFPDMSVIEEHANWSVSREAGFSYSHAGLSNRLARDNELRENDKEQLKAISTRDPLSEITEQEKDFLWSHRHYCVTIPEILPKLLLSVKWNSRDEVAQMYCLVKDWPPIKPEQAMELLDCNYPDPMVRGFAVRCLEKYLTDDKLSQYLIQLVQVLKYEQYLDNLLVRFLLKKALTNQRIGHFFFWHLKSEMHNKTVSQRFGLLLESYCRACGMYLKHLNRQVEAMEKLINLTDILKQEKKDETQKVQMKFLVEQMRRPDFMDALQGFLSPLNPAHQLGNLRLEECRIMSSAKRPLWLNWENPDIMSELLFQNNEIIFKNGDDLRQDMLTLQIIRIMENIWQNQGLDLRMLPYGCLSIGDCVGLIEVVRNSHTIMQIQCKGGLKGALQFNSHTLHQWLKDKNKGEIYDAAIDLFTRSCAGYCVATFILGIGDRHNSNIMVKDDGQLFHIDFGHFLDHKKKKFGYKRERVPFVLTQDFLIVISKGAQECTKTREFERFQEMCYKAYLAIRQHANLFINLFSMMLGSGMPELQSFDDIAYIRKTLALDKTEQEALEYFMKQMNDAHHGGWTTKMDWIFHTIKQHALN
# Target sequence in this assay (Q63787 whole entry partner): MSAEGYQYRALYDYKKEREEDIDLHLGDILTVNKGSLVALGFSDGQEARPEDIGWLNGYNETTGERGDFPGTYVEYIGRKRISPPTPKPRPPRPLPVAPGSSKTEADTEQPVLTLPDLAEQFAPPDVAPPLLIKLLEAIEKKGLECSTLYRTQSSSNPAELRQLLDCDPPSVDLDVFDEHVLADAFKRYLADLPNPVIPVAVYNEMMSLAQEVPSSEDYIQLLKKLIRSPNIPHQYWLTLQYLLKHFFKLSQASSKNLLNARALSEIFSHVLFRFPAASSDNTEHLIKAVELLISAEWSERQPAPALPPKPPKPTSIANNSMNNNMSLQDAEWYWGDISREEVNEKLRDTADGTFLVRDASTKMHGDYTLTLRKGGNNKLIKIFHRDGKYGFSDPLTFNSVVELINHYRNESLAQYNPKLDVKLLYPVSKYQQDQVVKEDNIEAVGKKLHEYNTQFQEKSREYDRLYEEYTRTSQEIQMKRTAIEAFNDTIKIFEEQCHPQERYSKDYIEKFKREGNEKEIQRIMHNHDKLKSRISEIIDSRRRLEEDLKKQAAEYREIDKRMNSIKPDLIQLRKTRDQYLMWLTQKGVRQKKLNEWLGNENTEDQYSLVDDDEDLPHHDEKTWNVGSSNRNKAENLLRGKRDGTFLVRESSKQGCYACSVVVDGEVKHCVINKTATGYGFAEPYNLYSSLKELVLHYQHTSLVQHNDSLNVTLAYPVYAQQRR
# [3] = target: T1, PI 3-kinase beta; experiment: Cellular assay I1, p-Akt (S473) in Rat-1 cells, Surefire format; assay type: cell-based; conditions: non-asterisked data: version I1 (Surefire format), Rat-1 cells; read-out: Assay I PI3Kβ IC50
# [4] = target: Vps34 (Homo sapiens, UniProt Q8NEB9); experiment: Kinase Glo Luminescent Kinase Assay (Kglo), assay C; assay type: biochemical; conditions: read-out: Assay C VPS34 IC50
# Chain of Vps34 (Q8NEB9 whole entry, species assumed): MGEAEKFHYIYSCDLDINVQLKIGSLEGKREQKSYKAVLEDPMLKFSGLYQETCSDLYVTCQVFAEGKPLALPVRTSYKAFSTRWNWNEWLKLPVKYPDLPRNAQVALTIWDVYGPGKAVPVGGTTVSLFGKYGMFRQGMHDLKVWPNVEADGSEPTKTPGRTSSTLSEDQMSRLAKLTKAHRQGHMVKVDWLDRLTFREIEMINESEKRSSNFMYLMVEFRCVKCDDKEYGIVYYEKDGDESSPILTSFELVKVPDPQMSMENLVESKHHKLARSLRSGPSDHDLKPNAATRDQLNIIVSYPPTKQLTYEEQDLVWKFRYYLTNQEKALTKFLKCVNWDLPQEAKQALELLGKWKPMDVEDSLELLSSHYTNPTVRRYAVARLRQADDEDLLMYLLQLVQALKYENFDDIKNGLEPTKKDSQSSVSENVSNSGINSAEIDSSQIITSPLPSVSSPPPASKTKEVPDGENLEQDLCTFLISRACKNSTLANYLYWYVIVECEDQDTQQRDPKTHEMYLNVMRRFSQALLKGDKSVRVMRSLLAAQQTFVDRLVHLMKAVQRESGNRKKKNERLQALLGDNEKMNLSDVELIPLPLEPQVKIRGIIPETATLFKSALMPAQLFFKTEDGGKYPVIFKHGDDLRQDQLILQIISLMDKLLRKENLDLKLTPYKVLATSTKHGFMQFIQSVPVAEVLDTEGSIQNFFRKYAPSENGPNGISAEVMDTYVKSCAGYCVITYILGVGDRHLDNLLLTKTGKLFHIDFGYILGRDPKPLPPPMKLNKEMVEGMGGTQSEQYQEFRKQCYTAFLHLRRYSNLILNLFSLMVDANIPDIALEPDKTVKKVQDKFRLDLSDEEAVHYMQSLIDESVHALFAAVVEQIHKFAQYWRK
# [5] = target: T3, PI 3-kinase gamma (Homo sapiens, UniProt P48736); experiment: Cellular U937 AKT assay K2 (HTRF); assay type: cell-based; conditions: U937 cells, K2 format; read-out: Assay K2 PI3Kγ IC50
# T3 sequence (P48736 whole entry): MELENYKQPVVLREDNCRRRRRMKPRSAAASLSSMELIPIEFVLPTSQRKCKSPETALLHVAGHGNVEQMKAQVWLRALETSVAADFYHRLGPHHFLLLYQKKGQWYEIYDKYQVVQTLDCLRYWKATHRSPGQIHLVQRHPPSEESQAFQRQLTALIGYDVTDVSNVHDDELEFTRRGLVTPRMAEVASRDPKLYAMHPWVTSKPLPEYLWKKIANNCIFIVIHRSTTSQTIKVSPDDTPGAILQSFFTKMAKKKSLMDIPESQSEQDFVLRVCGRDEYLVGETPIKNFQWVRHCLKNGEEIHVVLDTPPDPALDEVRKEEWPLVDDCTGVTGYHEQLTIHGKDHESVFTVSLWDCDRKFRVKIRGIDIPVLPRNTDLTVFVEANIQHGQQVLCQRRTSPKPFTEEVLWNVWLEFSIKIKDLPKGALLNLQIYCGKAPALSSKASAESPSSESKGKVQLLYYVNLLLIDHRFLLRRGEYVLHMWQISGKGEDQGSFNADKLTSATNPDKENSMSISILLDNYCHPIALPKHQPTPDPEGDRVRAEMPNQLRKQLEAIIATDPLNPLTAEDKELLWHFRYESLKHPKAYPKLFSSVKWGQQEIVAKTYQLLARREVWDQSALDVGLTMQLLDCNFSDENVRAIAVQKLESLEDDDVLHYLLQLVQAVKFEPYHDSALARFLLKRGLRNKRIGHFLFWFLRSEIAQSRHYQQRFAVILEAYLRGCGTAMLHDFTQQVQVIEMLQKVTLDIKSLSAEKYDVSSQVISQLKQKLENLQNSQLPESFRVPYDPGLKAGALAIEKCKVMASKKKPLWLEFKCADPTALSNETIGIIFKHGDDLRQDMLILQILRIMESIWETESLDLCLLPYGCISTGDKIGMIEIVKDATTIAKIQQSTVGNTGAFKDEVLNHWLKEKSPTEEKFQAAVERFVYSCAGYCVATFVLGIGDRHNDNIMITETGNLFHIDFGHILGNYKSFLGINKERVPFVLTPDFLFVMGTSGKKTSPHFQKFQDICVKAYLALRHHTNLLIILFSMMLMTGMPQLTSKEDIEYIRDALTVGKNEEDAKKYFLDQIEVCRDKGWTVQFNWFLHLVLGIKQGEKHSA
# [6] = target: T4, PI 3-kinase delta (Homo sapiens, UniProt O00329); experiment: Cellular assay J1, p-Akt (S473) in Rat-1 cells, Surefire format; assay type: cell-based; conditions: non-asterisked data: version J1 (Surefire format), Rat-1 cells; read-out: Assay J PI3Kδ IC50
# Target sequence in this assay (O00329 whole entry): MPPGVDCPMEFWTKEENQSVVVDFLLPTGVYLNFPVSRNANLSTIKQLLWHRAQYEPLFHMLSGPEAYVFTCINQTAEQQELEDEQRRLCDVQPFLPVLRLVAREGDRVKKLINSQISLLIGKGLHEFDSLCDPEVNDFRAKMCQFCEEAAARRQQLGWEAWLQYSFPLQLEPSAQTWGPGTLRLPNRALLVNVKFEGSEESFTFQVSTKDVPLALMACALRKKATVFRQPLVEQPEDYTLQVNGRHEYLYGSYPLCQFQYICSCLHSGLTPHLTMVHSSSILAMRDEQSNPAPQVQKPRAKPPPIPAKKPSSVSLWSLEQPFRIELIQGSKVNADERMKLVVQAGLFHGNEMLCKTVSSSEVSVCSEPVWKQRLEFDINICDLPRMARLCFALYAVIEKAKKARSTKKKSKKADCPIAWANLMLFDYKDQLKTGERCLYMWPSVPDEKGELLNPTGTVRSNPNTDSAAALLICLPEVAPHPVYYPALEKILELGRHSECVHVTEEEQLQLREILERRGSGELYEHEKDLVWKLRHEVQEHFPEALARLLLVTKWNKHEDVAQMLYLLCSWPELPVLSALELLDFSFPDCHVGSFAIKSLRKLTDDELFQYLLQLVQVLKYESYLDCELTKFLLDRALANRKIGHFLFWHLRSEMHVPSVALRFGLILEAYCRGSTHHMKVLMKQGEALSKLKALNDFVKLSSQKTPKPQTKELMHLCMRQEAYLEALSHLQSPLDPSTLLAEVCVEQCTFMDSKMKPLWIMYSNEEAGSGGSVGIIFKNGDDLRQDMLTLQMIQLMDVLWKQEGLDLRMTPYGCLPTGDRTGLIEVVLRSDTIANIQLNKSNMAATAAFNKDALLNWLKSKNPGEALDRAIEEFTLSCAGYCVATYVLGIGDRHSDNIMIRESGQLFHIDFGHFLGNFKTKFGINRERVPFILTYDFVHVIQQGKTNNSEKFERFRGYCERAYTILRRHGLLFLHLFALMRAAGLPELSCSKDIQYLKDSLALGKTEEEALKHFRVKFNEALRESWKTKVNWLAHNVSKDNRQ
# Target sequence in this assay (Q63787 whole entry partner): as the sequence (Q63787 whole entry partner) above
# [7] = target: T3, PI 3-kinase gamma; experiment: TR-FRET Adapta assay, assay E; assay type: biochemical; conditions: read-out: Assay E PI3Kγ IC50
# [8] = target: PI 4-kinase beta (Homo sapiens, UniProt Q9UBF8); experiment: Kinase Glo Luminescent Kinase Assay (Kglo), assay D; assay type: biochemical; conditions: read-out: Assay D PI4Kβ IC50
# Procedure: as §1, §2, §3, §4
# [9] = test system: IL-8-induced neutrophil shape change in human whole blood; experiment: Whole blood neutrophil shape change assay (L); assay type: cell-based; conditions: IL-8, human whole blood, read-out: Assay L WBSC IC50
# [10] = Microsomal clearance assay (M); conditions: intrinsic clearance in rat liver microsomes
# Procedure: The experiments were performed in 96-well glass plates at 37° C. on an automated Tecan EVO platform. Test compounds at a concentration of 10 mM in pure DMSO were diluted 1:1000 in water to 10 μM. […] Reactions were initiated by the addition of 150 μL of a cofactor solution containing 2 mM NADPH.
# [11] = target: T4, PI 3-kinase delta; experiment: TR-FRET Adapta assay, assay F; conditions: read-out: Assay F PI3Kδ IC50
# Target sequence in this assay (O00329 whole entry): as the sequence (O00329 whole entry) above
# Target sequence in this assay (P27986 461-568 partner): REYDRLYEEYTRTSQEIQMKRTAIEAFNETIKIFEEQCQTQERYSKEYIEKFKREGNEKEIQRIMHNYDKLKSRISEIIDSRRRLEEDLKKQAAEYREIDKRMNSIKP
# [12] = target: T2, PI 3-kinase alpha; experiment: Kinase Glo Luminescent Kinase Assay (Kglo), assay A; assay type: biochemical; conditions: read-out: Assay A PI3Kα IC50
# Target sequence in this assay (P42336 whole entry): as the sequence (P42336 whole entry) above
# [13] = target: T3, PI 3-kinase gamma; experiment: Cellular U937 AKT assay K1 (MSD); assay type: cell-based; conditions: U937 cells, K1 format; read-out: Assay K1 PI3Kγ IC50
# [14] = target: mTOR (Homo sapiens, UniProt P42345); experiment: Lanthascreen kinase binding assay, assay G; conditions: read-out: Assay G mTOR IC50
# Procedure: Lanthascreen™ Kinase Binding Assay for mTOR (G)
# Binding of an inhibitor to the kinase competes for binding with the tracer, resulting in a loss of FRET.
# 50 nL of compound dilutions were dispensed onto white 384-well small volume polystyrene plate.
SMILES,pIC50 [1],pIC50 [2],pIC50 [3],pIC50 [4],pIC50 [5],pIC50 [6],pIC50 [7],pIC50 [8],"pIC50 ([9]; Homo sapiens, Neutrophil)",Assay M RLM CI(int) [10] [µL/min/mg],pIC50 [11],pIC50 [12],pIC50 [13],pIC50 [14],pIC50 [9]
"Cc1ccc(S(=O)(=O)NCC[C@@H](O)C(F)(F)F)cc1-c1cnc(N)c(-c2cn(C)nc2C)n1 (single isomer, unassigned) [Example 52b, (R)-3-(5-Amino-6-(1,3-dimethyl-1H-pyrazol-4-yl)pyrazin-2-yl)-4-methyl-N-(4,4,4-trifluoro-3-hydroxybutyl)benzenesulfonamide or (S)-3-(5-Amino-6-(1,3-dimethyl-1H-pyrazol-4-yl)pyrazin-2-yl)-4-methyl-N-(4,4,4-trifluoro-3-hydroxybutyl)benzenesulfonamide]",–,–,–,< 5.00,6.47,–,7.59,5.38,–,43,–,6.64,7.22,–,6.26
"Cc1ncc(-c2nc(-c3cc(S(=O)(=O)NC[C@H]4CCOC4)ccc3C)cnc2N)s1 [Example 42, (R)-3-(5-Amino-6-(2-methylthiazol-5-yl)pyrazin-2-yl)-4-methyl-N-((tetrahydrofuran-3-yl)methyl)benzenesulfonamide]",6.18,6.89,6.10,5.33,7.74,6.80,8.15,5.46,–,160,7.52,7.52,7.85,–,–
Cc1ccc(S(=O)(=O)N2CC(F)(F)C2)cc1-c1cnc(N)c(-n2cncn2)n1 [Example 127.4],5.18,–,–,< 5.02,5.83,–,6.59,5.38,–,85,5.60,5.59,5.71,< 5.02,–
"CCN1CCC[C@@H]1CNS(=O)(=O)c1ccc(C)c(-c2cnc(N)c(-c3cnc(C)s3)n2)c1 [Example 41, (R)-3-(5-Amino-6-(2-methylthiazol-5-yl)pyrazin-2-yl)-N-((1-ethylpyrrolidin-2-yl)methyl)-4-methylbenzenesulfonamide]",6.60,< 5.52,6.01,5.11,7.62,> 8.52,8.00,5.03,–,314,7.70,6.96,7.41,–,–
"Cc1ccc(S(=O)(=O)NCC(C)(C)O)cc1-c1cnc(N)c(-c2ccoc2)n1 [Example 39, 3-(5-Amino-6-(furan-3-yl)pyrazin-2-yl)-N-(2-hydroxy-2-methylpropyl)-4-methylbenzenesulfonamide]",5.40,–,–,< 5.02,6.00,–,7.17,5.15,–,88,5.97,6.10,6.72,< 5.02,–
"COC1(C)CN(S(=O)(=O)c2ccc(C)c(-c3cnc(N)c(-c4cn(C)nc4C)n3)c2)C1 [Example 102, 3-(1,3-Dimethyl-1H-pyrazol-4-yl)-5-(5-(3-methoxy-3-methylazetidin-1-ylsulfonyl)-2-methylphenyl)pyrazin-2-amine]",5.74,5.34,5.28,< 5.00,6.68,5.88,6.82,5.23,–,75,6.05,6.26,–,5.54,–
Cc1ccc(S(=O)(=O)N2CC(F)C2)cc1-c1cnc(N)c(-n2cncn2)n1 [Example 127.5],5.51,–,–,< 5.00,6.38,–,7.00,< 5.00,5.01,72,5.41,6.40,–,5.74,–
"Cc1ncc(-c2nc(-c3cc(S(=O)(=O)NCC4(O)CCOCC4)ccc3C)cnc2N)s1 [Example 45.10, 3-(5-Amino-6-(2-methylthiazol-5-yl)pyrazin-2-yl)-N-((4-hydroxytetrahydro-2H-pyran-4-yl)methyl)-4-methylbenzenesulfonamide]",6.47,–,–,5.41,7.52,–,8.00,5.72,6.18,32,6.82,7.70,–,–,–

# More lines, main results first:
pIC50 [1],pIC50 [2],pIC50 [3],pIC50 [4],pIC50 [5],pIC50 [6],pIC50 [7],pIC50 [8],"pIC50 ([9]; Homo sapiens, Neutrophil)",Assay M RLM CI(int) [10] [µL/min/mg],pIC50 [11],pIC50 [12],pIC50 [13],pIC50 [14],SMILES,pIC50 [9]
5.11,< 5.00,< 5.00,< 5.00,6.71,< 5.00,6.72,< 5.00,5.66,20,6.52,6.72,–,–,"Cc1ccc(S(=O)(=O)NC[C@@H]2COCCN2)cc1-c1cnc(N)c(-c2cn(C)nc2C)n1 [Example 128.6, (R)-3-(5-Amino-6-(1,3-dimethyl-1H-pyrazol-4-yl)pyrazin-2-yl)-4-methyl-N-(morpholin-3-ylmethyl)benzenesulfonamide]",–
5.85,–,–,< 5.00,6.39,–,7.47,5.10,5.21,–,5.82,6.19,6.64,< 5.00,Cc1ccc(S(=O)(=O)NCCC2(O)CCCCC2)cc1-c1cnc(N)c(-n2cncn2)n1 [Example 127.37],–
5.16,< 5.00,< 5.52,< 5.04,< 5.00,–,6.96,< 5.04,–,15,6.02,5.89,5.21,< 5.04,"Cc1cc(-c2nc(-c3cc(S(=O)(=O)NC[C@H]4CCNC4)ccc3C)cnc2N)ccn1 [Example 129.36, (S)-3-(5-amino-6-(2-methylpyridin-4-yl)pyrazin-2-yl)-4-methyl-N-(pyrrolidin-3-ylmethyl)benzenesulfonamide]",–
5.77,5.82,5.81,< 5.00,6.55,6.11,7.35,< 5.00,–,134,6.30,7.00,6.98,–,"Cc1ccc(S(=O)(=O)NCC2(C)CCCO2)cc1-c1cnc(N)c(-c2cn(C)nc2C)n1 (centres unmarked) [Example 128.4, 3-(5-Amino-6-(1,3-dimethyl-1H-pyrazol-4-yl)pyrazin-2-yl)-4-methyl-N-((2-methyltetrahydrofuran-2-yl)methyl)benzenesulfonamide]",–
< 5.04,5.37,< 5.00,< 5.04,5.80,5.30,7.24,< 5.04,–,99,6.04,5.92,6.09,5.06,"Cc1cc(-c2nc(-c3cc(S(=O)(=O)NC[C@H]4CCCO4)ccc3C)cnc2N)ccn1 [Example 129.12, (R)-3-(5-amino-6-(2-methylpyridin-4-yl)pyrazin-2-yl)-4-methyl-N-((tetrahydrofuran-2-yl)methyl)benzenesulfonamide]",–
5.21,5.21,5.04,< 5.04,6.49,5.14,7.22,5.47,5.58,26,5.82,6.38,–,< 5.04,Cc1ccc(S(=O)(=O)N2CC(CO)C2)cc1-c1cnc(N)c(-n2cncn2)n1 [Example 127.45],–
5.52,< 5.00,< 5.00,< 5.00,6.48,5.79,–,< 5.00,–,–,6.60,6.00,–,–,"CCN1CCC[C@H]1CNS(=O)(=O)c1ccc(C)c(-c2cnc(N)c(-c3cn(C)nc3C)n2)c1 [Example 128.1, (S)-3-(5-Amino-6-(1,3-dimethyl-1H-pyrazol-4-yl)pyrazin-2-yl)-N-((1-ethylpyrrolidin-2-yl)methyl)-4-methylbenzenesulfonamide]",–
